“And” between values parts separate entries of the source, which are not always exact repeats. Identical values can stand only once.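 Where inhibition never reached the appropriate level, the endpoint shown equals the highest concentration tested. Otherwise, values were interpolated linearly from a five-concentration, 48-hour dose response in 96-well plates. At the GI50, growth is halved. The concentration for full growth arrest is given as TGI.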
Legend:
Experiment in all cases: growth of human tumour cells (NCI), 48 h
[1] = test system: A549 NSCLC
[2] = test system: ACHN renal
[3] = test system: NCI-H522 lung
[4] = test system: SF-295 CNS
[5] = test system: SNB-19 CNS
[6] = test system: SK-MEL-2 melanoma
[7] = test system: UACC-257 melanoma
[8] = test system: EKVX NSCLC
[9] = test system: CAKI-1 renal
[10] = test system: BT-549 breast

SMILES	TGI [1]	TGI [2] [µM]	TGI [3] [µM]	TGI [4]	TGI [5]	TGI [6] [µM]	TGI [7]	TGI [8] [µM]	TGI [9] [µM]	GI50 [1] [µM]	GI50 [3] [µM]	GI50 [4] [µM]	GI50 [10] [µM]	TGI [10] [µM]	GI50 [5] [µM]	GI50 [6] [µM]	GI50 [7] [µM]	GI50 [8] [µM]	GI50 [9] [µM]	GI50 [2] [µM]
C=C(CC(=O)Nc1ccc(C(=O)OC)o1)C(=O)OC	35.8 µM	34.6	38	> 100 µM	> 100 µM	46.7	44.5 µM	45	41.9	–	–	–	–	–	–	–	–	–	–	–
CCOC(=O)c1c2c(n3ccc(NC(=O)OC(C)(C)C)cc13)C(=O)c1ncccc1C2=O	1.25 µM	–	0.817	1.13 µM	1.36 µM	9.24	0.919 µM	2.03	1.58	0.186	0.179	0.272	0.179	2.02	0.159	0.44	0.265	0.168	0.0389	–
NC(c1ccccc1)(C(F)(F)F)P1(=O)OC(=O)c2ccccc2O1 (centres undefined)	> 100 µM	> 100	–	> 100 µM	> 100 µM	> 100	> 100 µM	> 100	> 100	–	–	–	–	> 100	–	–	–	–	–	–
CC(NC1=NCCO1)c1cccc([N+](=O)[O-])c1 (centres undefined)	> 100 µM	> 100	> 100	> 100 µM	> 100 µM	> 100	> 100 µM	> 100	> 100	–	–	–	–	–	–	–	–	–	–	–
CCN(CC)C(=S)N/N=C/c1ccccn1	1.39 µM	10.1	1.53	> 77.1 µM	> 100 µM	> 100	–	> 100	> 100	–	–	–	–	> 100	–	–	–	–	–	–
O=C1c2ccccc2C(=O)c2c1ccc1c2N=C(c2ccc(F)cc2)CC(c2ccc(Cl)c(Cl)c2)N1 (centres undefined)	47.6 µM	27.8	20.4	28.6 µM	25.8 µM	29.3	50 µM	20.3	17	–	–	–	–	–	–	–	–	–	–	–
CC(=O)OCc1cc(=O)n(C)c2c3c4c(cc12)c(C)cc(=O)n4CO3	21.1 µM	–	2.16	6.49 µM	72.8 µM	3.65	5.42 µM	11.2	33.9	–	–	–	–	–	–	–	–	–	–	–
O=c1[nH]c(=O)n(COCc2ccccc2)c2ccc(Br)cc12	> 100 µM	> 100	–	> 100 µM	> 100 µM	> 100	> 100 µM	> 100	> 100	–	–	–	–	–	–	–	–	–	–	–
Cc1ccc(-n2c(O)c3c(N)n[nH]c3c(C#N)c2=O)cc1	> 100 µM	–	> 100	–	> 100 µM	> 100	> 100 µM	> 100	> 100	–	–	–	–	> 100	–	–	–	–	–	–
S=C1C(=Nc2ccccc2)N(c2ccccc2)/C(=N\c2ccccn2)N1c1ccccc1	38.6 µM	15.9	3.59	29.9 µM	29.9 µM	24.6	27.3 µM	29.1	29	–	–	–	–	–	–	–	–	–	–	–
O=C1CCC2(CC1CCSc1ccccc1)OCCO2 (centres undefined)	> 100 µM	> 100	> 100	> 100 µM	> 100 µM	> 100	> 100 µM	> 100	> 100	–	–	–	–	–	–	–	–	–	–	–
O=c1[nH]c(=O)n(COCc2ccccc2)c2ccc([N+](=O)[O-])cc12	> 100 µM	> 100	–	> 100 µM	–	> 100	> 100 µM	> 100	> 100	–	–	–	–	–	–	–	–	–	–	–
CCOC(=O)C(NC(=O)CC(C)C)(Nc1ccc(C(F)(F)F)cc1)C(F)(F)F (centres undefined)	> 100 µM	91	> 100	> 100 µM	> 100 µM	> 100	> 100 µM	> 100	–	–	–	–	–	–	–	–	–	–	–	–
Nc1ccccc1NC(=O)CCCCCCC(=O)Nc1ccc2c(c1)/C(=C/c1ccc[nH]1)C(=O)N2	> 100 µM	> 100	> 100	> 100 µM	> 100 µM	> 100	> 100 µM	–	–	> 100	2.78	> 100	0.391	> 100	> 100	5.73	> 100	–	–	15.1
CN(C)CCOC(=O)c1ccc(N)cc1	> 100 µM	> 100	68.1	> 100 µM	> 100 µM	–	54 µM	–	> 100	–	–	–	–	> 100	–	–	–	–	–	–
CN(C)CCCNc1c2ccccc2nc2cccc([N+](=O)[O-])c12	0.0121 µM and 0.0944 µM	–	< 0.001	0.0167 µM and 0.0867 µM	0.0171 µM and 0.142 µM	0.00221	0.00749 µM and 0.0452 µM	0.448	–	–	–	< 0.001	–	0.0151	0.0303	–	0.0207	–	< 0.001	–
O=C(NCCCCNCCCNC(=O)c1ccccc1)c1ccccc1	> 100 µM	> 100	> 100	> 100 µM	> 100 µM	> 100	> 100 µM	> 100	–	–	–	–	–	> 100	–	–	–	–	–	–
CC(=O)NC1C(OCc2ccccc2)OC(CO)C(O)C1OCC(=O)NC(C)C(=O)NC(CCC(=O)NCCCCCNc1c2ccccc2nc2cccc([N+](=O)[O-])c12)C(N)=O (centres undefined)	0.00142 µM	< 0.0001	0.0045	0.0265 µM	–	< 0.0001	0.00332 µM	–	< 0.0001	–	–	–	–	< 0.0001	–	–	–	–	–	–
S=c1nc2[nH]c3ccc(Br)cc3c2n[nH]1	> 100 µM	–	> 100	–	> 100 µM	90	> 100 µM	> 100	> 100	–	–	–	–	> 100	–	–	–	–	–	–
COC(=O)c1nc(-c2ccc3c(n2)C(=O)C(N)=C(OC)C3=O)c(N)c(-c2ccc(OC)c(OC)c2O)c1C	2.76 µM	–	2.43	2.02 µM	2.22 µM	3.26	2.09 µM	7.95	3.28	–	–	–	–	–	–	–	–	–	–	–
